Assays:
rat brain homogenates = assay: Iron/ascorbate mediated lipid peroxidation of rat brain homogenates (TBARS); assay type: biochemical; details: for IC50: rat brain homogenate, 30 minutes incubation with iron and ascorbate, TBARS
Method: Frozen adult Sprague-Dawley rat brains (Pel-Freez, Rogers, Ark.) were homogenized with a polytron (Turrax T25, Germany) in 5 volumes of ice cold 50 mM potassium phosphate at pH 7.4. Homogenate protein concentration was determined with the Coomassie Plus protein assay (Pierce, Rockford, Ill.) using bovine serum albumin as a standard. The homogenate volume was adjusted with buffer to give a final protein concentration of 10 mg/ml and frozen as aliquots at […].
Rat brain homogenates (2 mg protein) were incubated with varying concentrations of antioxidant at 37° C. for 15 minutes. Oxidation of the rat brain homogenate was initiated by the addition of 0.1 ml of a freshly prepared anaerobic stock solution containing iron(II) chloride (0.25 mM) and ascorbate (1 mM) as previously reported (Braughler et al, J. Biol. Chem. 262:10438 (1987)). Samples (final volume 1 ml) were placed in a shaking water bath at 37° C. for 30 minutes. The reactions were stopped by the addition of 0.1 ml of a stock butylated hydroxytoluene (60 mM) solution in ethanol.
The concentration of thiobarbituric acid reactive species (TBARS) in rat brain homogenates was used as a index of lipid peroxidation (Bernhem et al, J. Biol. Chem. 174:257 (1948); Witz et al, J. Free Rad. Biol. Med. 2:33 (1986); Kikugawa et al, Anal. Biochem. 202:249 (1992); Jentzsch et al, Free Rad. Biol. Med. 20P251 (1996)). Malondialdehyde standards were obtained by adding 8.2 μl of 1,1,3,3-tetramethoxypropane in 10 ml of 0.01 M HCl and mixing for 10 minutes at room temperature. This stock was further diluted in water to give standards that ranged from 0.25 to 25 μM. Samples or standards (200 μl) were acidified with 200 μl of 0.2 M phosphoric acid in 1.5 ml locking microfuge tubes. The color reaction was initiated by the addition of 25 μl of a 0.11M thiobarbituric acid solution and samples were placed in a 90° C. heating block for 45 minutes. TBARS were extracted with 0.5 ml of n-butanol by vortexing samples for 3 minute and chilling on ice for 1 minute. The samples were then centrifuged at 12,000×g for 3 minutes, 150 μl aliquots of the n-butanol phase were placed in each well of a 96-well plate and read at 535 nm in a Thermomax platereader (Molecular Devices, Sunnyvale, Calif.) at 25° C. Sample absorbencies were converted to MDA equivalencies (μM) by extrapolation from the MDA standard curve. None of the antioxidants at concentrations employed in these studies affected the reaction of MDA standards with thiobarbituric acid and reactions without TBA were used as subtraction blanks.
Data were presented as their means ±SE. The inhibitory concentration of antioxidants that decreased the degree of lipid peroxidation by 50% (IC50) and respective 95% confidence intervals (CI) were determined by fitting a sigmoidal curve with variable slope to the data (GraphPad Prizm, San Diego, Calif.).

[1] = Electrochemistry: metal-centered redox potential; assay type: physicochemical; details: metal centered, vs NHE, pH 7.8 if not otherwise specified
Method: Electrochemistry. The electrochemical characterization was performed as described previously on a Voltammetric Analyzer Model 600 (CH instrument) using a glassy carbon electrode (Ag/AgCl reference and Pt auxiliary electrodes), at 0.5 mM porphyrin, pH 7.8 (0.05 M phosphate buffer), 0.1 M NaCl. The potentials were standardized against potassium ferricyanide/potassium ferrocyanide couple (Batinic-Haberle et al, Arch. Biochem. Biophys. 343:225 (1997); Kolthof et al, J. Phys. Chem. 39:945 (1974)).
Electrochemistry. The metal-centered redox behavior of all metalloporphyrin products was reversible. The half-wave potentials (E^O1/2) were calculated as the average of the cathodic and anodic peaks and are given in mV vs NHE (Table 5). The average shift per chlorine is +55 mV (Table 5), which is in agreement with the values previously reported for H2TPP derivatives (between −50 and +70 mV) (Sen et al, Chem. Soc. Faraday Trans. 93:4281 (1997); Autret et al. J. Chem. Soc. Dalton Trans. 2793 (1996); Hariprasad et al, J. Chem. Soc. Dalton Trans. 3429 (1996); Tagliatesta et al, Inorg. Chem. 35:5570 (1996); Ghosh, J. Am. Chem. Soc. 117:4691 (1995); Takeuchi et al, J. Am. Chem. Soc. 116:9730 (1994); Binstead et al, Inorg. Chem. 30:1259 (1991); Giraudeau et al, J. Am. Chem. Soc. 101:3857 (1979)). This shift appears to be higher (˜+65 mV) between 0 and 1, and between 2 and 3 chlorines (Table 5). […] The manganese redox state of MnCl4TE-2-PyP^5 (E^O1/2=+448 mV) and MnOBTMPyP^4+ (E^O1.2=+480 mV) is 3+ and 2+, respectively. This difference may be explained by their difference in terms of redox potential (˜30 mV) but also by structural considerations, for instance an increased distortion of the porphyrin ring in the case of MnOBTMPyP^4+. (Batinic-Haberle et al, Arch. Biochem. Biophys. 343:225 (1997); Ochsenbein et al, Angew. Chem. Int. Ed. Engl. 33:348 (1994)).

[2] = SOD activity in U/mg (reduction of cytochrome c or photoreduction of NBT); assay type: biochemical; details: unit = amount that inhibits one half the reduction of cytochrome c or photoreduction of NBT
[3] = cited from earlier work; for kcat of comparison compounds: literature comparators
[4] = vs NHE; literature comparators; cited from earlier work

With `O=C(O)c1ccc(-c2c3nc(c(-c4ccc(C(=O)O)cc4)c4ccc([nH]4)c(-c4ccc(C(=O)O)cc4)c4nc(c(-c5ccc(C(=O)O)cc5)c5ccc2[nH]5)C=C4)C=C3)cc1.[Fe+3]` [FeTBAP, Ferric 5,10,15,20-tetrakis(4-benzoic acid) porphyrin] the IC50 (rat brain homogenates) was 212 µM, the “Redox Potential (E1/2)” value [1] was “+0.01 V” and the SOD [2] was 24 U/mg.

In the case of `C[n+]1ccc(-c2c3nc(c(-c4cc[n+](C)cc4)c4[n-]c(c(Br)c4Br)c(-c4cc[n+](C)cc4)c4nc(c(-c5cc[n+](C)cc5)c5[n-]c2c(Br)c5Br)C(Br)=C4Br)C(Br)=C3Br)cc1.[Mn+3]` [MnOBTM-4-PyP, Manganese β-octabromo-meso-tetrakis-(N-methylpyridinium-4-yl)porphyrin], the “kcat of comparison compounds” value [3] is listed as 22 10^7 M^−1 s^−1, the IC50 (rat brain homogenates) is listed as 1.3 µM and the “E°1/2 half-wave potential of comparison compounds” value [4] is listed as “+480 mV”. For the same molecule, the “Redox Potential (E1/2)” value [1] was “+0.48 V” and the SOD [2] was 18,460 U/mg.

In the case of `Cc1c(C)c2c(c(C)c1O)CCC(C)(C(=O)O)O2` (centres unmarked) [Trolox], the IC50 (rat brain homogenates) is reported as 204 µM.

In the case of `C[n+]1ccccc1-c1c2nc(c(-c3cccc[n+]3C)c3ccc([nH]3)c(-c3cccc[n+]3C)c3nc(c(-c4cccc[n+]4C)c4ccc1[nH]4)C=C3)C=C2.[Zn+2]` [ZnTM-2-PyP], the IC50 (rat brain homogenates) is reported as 591 µM and the SOD [2] is reported as “trace”.

For `C[n+]1ccc(-c2c3nc(c(-c4cc[n+](C)cc4)c4ccc([nH]4)c(-c4cc[n+](C)cc4)c4nc(c(-c5cc[n+](C)cc5)c5ccc2[nH]5)C=C4)C=C3)cc1.[Zn+2]` [ZnTM-4-PyP], the IC50 (rat brain homogenates) was 241 µM and the SOD [2] was “trace”.

For “CuZnSOD: dimeric copper- and zinc-containing superoxide dismutase enzyme; bovine in Example VIII”, the “kcat of comparison compounds” value [3] is listed as 200 10^7 M^−1 s^−1, the “kcat per active site” value ([3]; per active site) is listed as 10^9 M^−1s^−1 and the IC50 (rat brain homogenates) is listed as 15 µM. For the same molecule, the “E°1/2 half-wave potential of comparison compounds” value [4] was “+260 mV”, the “Redox Potential (E1/2)” value [1] was “+0.35 V” and the SOD [2] was 5,100 U/mg.

In the case of MnTBAP, the IC50 (rat brain homogenates) is reported as 29 µM, the “Redox Potential (E1/2)” value [1] is reported as −0.19 V and the SOD [2] is reported as 179 U/mg.

B1: catalase: enzymatic antioxidant (protein, UniProt P04040 2-527, looked up)
Catalase: ADSRDPASDQMQHWKEQRAAQKADVLTTGAGNPVGDKLNVITVGPRGPLLVQDVVFTDEMAHFDRERIPERVVHAKGAGAFGYFEVTHDITKYSKAKVFEHIGKKTPIAVRFSTVAGESGSADTVRDPRGFAVKFYTEDGNWDLVGNNTPIFFIRDPILFPSFIHSQKRNPQTHLKDPDMVWDFWSLRPESLHQVSFLFSDRGIPDGHRHMNGYGSHTFKLVNANGEAVYCKFHYKTDQGIKNLSVEDAARLSQEDPDYGIRDLFNAIATGKYPSWTFYIQVMTFNQAETFPFNPFDLTKVWPHKDYPLIPVGKLVLNRNPVNYFAEVEQIAFDPSNMPPGIEASPDKMLQGRLFAYPDTHRHRLGPNYLHIPVNCPYRARVANYQRDGPMCMQDNQGGAPNYYPNSFGAPEQQPSALEHSIQYSGEVRRFNTANDDNVTQVRAFYVNVLNEEQRKRLCENIAGHLKDAQIFIQKKAVKNFTEVHPDYGSHIQALLDKYNAEKPKNAIHTFVQSGSHLAAREKANL
With B1 the “inhibition of iron/ascorbate-initiated lipid peroxidation” value (rat brain homogenates; up to concentrations of 1 mg/ml) was “did not inhibit”.

Source: patent publication US20080113956A1, “Substituted Porphyrins” (priority 1997, published 2008)
